Target: T1, Musashi-1 (MSI1) (Mus musculus, UniProt Q61474)
T1 sequence (Q61474 20-107): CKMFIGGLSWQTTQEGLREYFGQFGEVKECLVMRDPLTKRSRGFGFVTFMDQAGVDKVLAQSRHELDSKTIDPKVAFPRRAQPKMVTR
Experiment: SPR on immobilized GB1-RBD1, 1H-15N HSQC NMR titration
Type: binding

## Cc1cc2c(C(C)C)c(O)c(O)c(C=O)c2c(O)c1-c1c(C)cc2c(C(C)C)c(O)c(O)c(C=O)c2c1O [(–)-G, (–)-gossypol]
  Ki: 476 ± 273 nM

Source: publication PMC4523432 (Molecular oncology, 2015)
